Results published in patent publication US9637520B2, “Template-fixed peptidomimetics with CXCR7 modulating activity” (POLYPHOR AG, priority 2010, dated 2017).
Starred links: 1 amine or outer side, 2 acyl side, 3 side chain; linkers in the order of their positions; H or OH if unused. Non-standard residues stand in square brackets, D forms with d. Residues, ends and D or L forms follow the SMILES beside them. *: point of attachment. Arg(Nω,Nω'-propylene) = N[C@@H](CCCNC1=NCCCN1)C(=O)O; dPro(cis-4-NH2) = N[C@H]1CN[C@@H](C(=O)O)C1; X4 = Cn1ccnc1CNCCC[C@H](N[*:1])C(=O)[*:2]; dPro(4S-NH2) = N[C@@H]1CN[C@@H](C(=O)O)C1; Oic = O=C(O)[C@@H]1C[C@@H]2CCCC[C@@H]2N1; Pro(cis-4-F) = O=C(O)[C@@H]1C[C@H](F)CN1; dPro(3S-OH) = O=C(O)[C@@H]1NCC[C@@H]1O; Pro(3S-OH) = O=C(O)[C@H]1NCC[C@@H]1O; cisHyp = O=C(O)[C@@H]1C[C@H](O)CN1; Tic = O=C(O)[C@@H]1Cc2ccccc2CN1; Agb = N=C(N)NCC[C@H](N)C(=O)O; Agp = N=C(N)NC[C@H](N)C(=O)O; 2Pyrimidinyl = c1cnc(*)nc1; dPip = O=C(O)[C@H]1CCCCN1; Orn = NCCC[C@H](N)C(=O)O; Bn = c1ccc(C*)cc1

biological target: T1, CXCR7 (Homo sapiens, UniProt P25106); assay: CXCR7 β-arrestin recruitment assay (PathHunter CHO-CXCR7, DiscoverX), agonistic assay; type: cell-based; conditions: agonistic assay; CHO CXCR7 β-arrestin cells; 90 min at 37° C.; chemiluminescence; read-out: β-Arrestin EC50
T1 construct: host or cells: CHO (PathHunter CHO-CXCR7 β-arrestin cells)
T1 sequence (P25106 whole entry): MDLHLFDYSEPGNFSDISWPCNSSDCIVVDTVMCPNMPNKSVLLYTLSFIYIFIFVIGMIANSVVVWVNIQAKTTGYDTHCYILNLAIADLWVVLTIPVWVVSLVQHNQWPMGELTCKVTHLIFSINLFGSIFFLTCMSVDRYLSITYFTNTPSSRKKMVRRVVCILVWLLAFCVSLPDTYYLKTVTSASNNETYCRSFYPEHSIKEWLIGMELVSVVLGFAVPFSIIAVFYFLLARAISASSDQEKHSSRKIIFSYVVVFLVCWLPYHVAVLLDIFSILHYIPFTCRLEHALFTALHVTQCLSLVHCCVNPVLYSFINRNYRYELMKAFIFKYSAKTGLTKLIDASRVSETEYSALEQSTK
Protocol: Lyophilized peptides were weighed on a Microbalance (Mettler MX5) and dissolved in DMSO to a final concentration of 10 mM unless otherwise stated. Stock solutions were kept at +4° C., and protected from light.
2.2 CXCR7 β-Arrestin Recruitment Assay
The PathHunter CHO-CXCR7 (DiscoverX) assay was performed according to the manufacturer's protocol. In brief, CHO CXCR7 β-arrestin cells were seeded at a density of 5000 cells per well in 40 μl of F12 medium in black 96-half volume well culture plates and incubated overnight at 37° C. in a humidified atmosphere with 5% CO2. The next day, serial dilutions of PEM compounds have been prepared in DMSO and subsequently diluted in HBSS buffer containing 0.1% BSA.
For agonistic assay, 10 μl of compound solution or a solution of stromal cell-derived factor-1 (SDF-1) as positive control was added to the cells with a final DMSO concentration of 1% (v/v). The plate was incubated for 90 min at 37° C. in 5% CO2 incubator with gentle shaking (300 rpm) before addition of 40 μl of detection reagent per well. Reaction was developed for 90 min at room temperature in the dark with shaking, and chemiluminescence was measured with a Topcount (Perkin Elmer) luminescence counter.

| SMILES | EC50 |
| --- | --- |
| CC[C@H](C)[C@@H]1NC(=O)[C@H]([C@@H](C)O)NC(=O)[C@H]2CCCN2C(=O)[C@H](Cc2c[nH]c3ccccc23)NC(=O)[C@H](CNC(=N)N)NC(=O)[C@@H](CCCNC(=N)N)NC1=O [Ex. 23, cyclo(-Ile-^DArg-Agp-Trp-^DPro-Thr-)] (cyclo([Agp]W[dP]TI[dR])) | 90.5 ± 60.7 nM |
| CC[C@H](C)[C@@H]1NC(=O)[C@H]([C@@H](C)O)NC(=O)[C@H]2CCCN2C(=O)[C@H](Cc2c[nH]c3ccccc23)NC(=O)[C@H](CCNC(=N)N)NC(=O)[C@@H](CCCNC(=N)N)NC1=O [Ex. 24, cyclo(-Ile-^DArg-Agb-Trp-^DPro-Thr-)] (cyclo([Agb]W[dP]TI[dR])) | 22.3 ± 29.3 nM |
| N=C(N)NCCC[C@@H]1NC(=O)[C@H](Cc2c[nH]c3ccccc23)NC(=O)[C@@H](Cc2ccccc2)NC(=O)[C@H](Cc2c[nH]c3ccccc23)NC(=O)[C@@H]2Cc3ccccc3CN2C(=O)[C@H]2C[C@H](N)CN2C1=O [Ex. 25, cyclo(-Trp-^DPhe-Trp-Arg-^DPro((4S)NH2)-Tic-)] (cyclo(R[dPro(4S-NH2)][Tic]W[dF]W)) | 17.5 ± 12.2 nM |
| NCCC[C@@H]1NC(=O)[C@H](Cc2c[nH]c3ccccc23)NC(=O)[C@@H](Cc2ccccc2)NC(=O)[C@H](Cc2c[nH]c3ccccc23)NC(=O)[C@@H]2Cc3ccccc3CN2C(=O)[C@H]2C[C@@H](N)CN2C1=O [Ex. 29, cyclo(-Trp-^DPhe-Trp-Orn-^DPro((4R)NH2)-Tic-)] (cyclo([Orn][dPro(cis-4-NH2)][Tic]W[dF]W)) | 26.1 ± 16.7 nM |
| N=C(N)NCCC[C@@H]1NC(=O)[C@H](Cc2c[nH]c3ccccc23)NC(=O)[C@@H](Cc2ccccc2)NC(=O)[C@H](Cc2c[nH]c3ccccc23)NC(=O)[C@@H]2C[C@@H]3CCCC[C@@H]3N2C(=O)[C@H]2C[C@@H](N)CN2C1=O [Ex. 41, cyclo(-Trp-^DPhe-Trp-Arg-^DPro((4R)NH2)-Oic-)] (cyclo([Oic]W[dF]WR[dPro(cis-4-NH2)])) | 20.9 ± 33.7 nM |
| N=C(N)NCCC[C@@H]1NC(=O)[C@H](Cc2c[nH]c3ccccc23)NC(=O)[C@@H](Cc2ccccc2)NC(=O)[C@H](Cc2c[nH]c3ccccc23)NC(=O)[C@@H]2C[C@H](F)CN2C(=O)[C@H]2CCCN2C1=O [Ex. 43, cyclo(-Trp-^DPhe-Trp-Arg-^DPro-Pro((4S)F)—)] (cyclo([Pro(cis-4-F)]W[dF]WR[dP])) | 119 ± 42.3 nM |

Second part, the molecule after the results:

| EC50 | SMILES |
| --- | --- |
| 76.9 ± 24.7 nM | N=C(N)NCCC[C@@H]1NC(=O)[C@@H]2C[C@H](OCc3ccccc3)CN2C(=O)[C@H]2CCCN2C(=O)[C@H](CCCNC(=N)N)NC(=O)[C@H](Cc2c[nH]c3ccccc23)NC(=O)[C@@H](Cc2ccccc2)NC1=O [Ex. 48, cyclo(-Arg-^DPhe-Trp-Arg-^DPro-(4S)-Hyp(Bn)-)] (cyclo(R[dF]WR[dP][cisHyp](Bn))) |
| 8.2 ± 3.4 nM | CC[C@H](C)[C@@H]1NC(=O)[C@@H]2[C@@H](O)CCN2C(=O)[C@H]2CCCCN2C(=O)[C@H](Cc2c[nH]c3ccccc23)NC(=O)[C@H](CCCNC(=N)N)NC(=O)[C@@H](CCCNC(=N)N)NC1=O [Ex. 54, cyclo(-Ile-^DArg-Arg-Trp-^DPip-Pro((3S)OH)—)] (cyclo(I[dR]RW[dPip][Pro(3S-OH)])) |
| 632 ± 23.3 nM | CC[C@H](C)[C@@H]1NC(=O)[C@H]([C@@H](C)O)NC(=O)[C@H]2[C@@H](O)CCN2C(=O)[C@H](Cc2c[nH]c3ccccc23)NC(=O)[C@H](CCCNC(=N)N)NC(=O)[C@@H](CCCNC(=N)N)NC1=O [Ex. 55, cyclo(-Ile-^DArg-Arg-Trp-^DPro((4S)OH)-Thr-)] (cyclo(I[dR]RW[dPro(3S-OH)]T)) |
| 949 ± 75.3 nM | CC[C@H](C)[C@@H]1NC(=O)[C@H]([C@@H](C)O)NC(=O)[C@H]2C[C@@H](N)CN2C(=O)[C@H](Cc2c[nH]c3ccccc23)NC(=O)[C@H](CCCNC(=N)N)NC(=O)[C@@H](CCCNC(=N)N)NC1=O [Ex. 56, cyclo(-Ile-^DArg-Arg-Trp-^DPro((4R)NH2)-Thr-)] (cyclo(I[dR]RW[dPro(cis-4-NH2)]T)) |
| 453 ± 186 nM | CC[C@H](C)[C@@H]1NC(=O)[C@H]([C@@H](C)O)NC(=O)[C@H]2CCCN2C(=O)[C@H](Cc2c[nH]c3ccccc23)NC(=O)[C@H](CCCNc2ncccn2)NC(=O)[C@@H](CCCNC(=N)N)NC1=O [Ex. 68, cyclo(-Ile-^DArg-Orn(Ar2)-Trp-^DPro-Thr-)] (cyclo(I[dR][Orn](2Pyrimidinyl)W[dP]T)) |
| 337 ± 92.6 nM | CC[C@H](C)[C@@H]1NC(=O)[C@H]([C@@H](C)O)NC(=O)[C@H]2CCCN2C(=O)[C@H](Cc2c[nH]c3ccccc23)NC(=O)[C@H](CCCNCc2nccn2C)NC(=O)[C@@H](CCCNC(=N)N)NC1=O [Ex. 69, cyclo(-Ile-^DArg-Orn(Ar7)-Trp-^DPro-Thr-)] (cyclo(I[dR][X4]W[dP]T)) |
| 3.2 ± 2.7 nM | CC[C@H](C)[C@@H]1NC(=O)[C@H]([C@@H](C)O)NC(=O)[C@H]2CCCN2C(=O)[C@H](Cc2c[nH]c3ccccc23)NC(=O)[C@H](CCCNC2=NCCCN2)NC(=O)[C@@H](CCCNC(=N)N)NC1=O [Ex. 71, cyclo(-Ile-^DArg-Orn(A56)-Trp-^DPro-Thr-)] (cyclo(I[dR][Arg(Nω,Nω'-propylene)]W[dP]T)) |
